Literature values as cited in article PMC8583936, “Machine Learning Assisted Approach for Finding Novel High Activity Agonists of Human Ectopic Olfactory Receptors” (International Journal of Molecular Sciences, 2021).
Where a name gives a salt, the structure may show the parent alone. Read-outs that look alike come from different tables or passages of the source.

Experiments:
OR1A1 = target: T1, OR1A1 (Homo sapiens, UniProt Q9P1Q5); settings: cited from earlier work
T1 sequence (Q9P1Q5 1-309): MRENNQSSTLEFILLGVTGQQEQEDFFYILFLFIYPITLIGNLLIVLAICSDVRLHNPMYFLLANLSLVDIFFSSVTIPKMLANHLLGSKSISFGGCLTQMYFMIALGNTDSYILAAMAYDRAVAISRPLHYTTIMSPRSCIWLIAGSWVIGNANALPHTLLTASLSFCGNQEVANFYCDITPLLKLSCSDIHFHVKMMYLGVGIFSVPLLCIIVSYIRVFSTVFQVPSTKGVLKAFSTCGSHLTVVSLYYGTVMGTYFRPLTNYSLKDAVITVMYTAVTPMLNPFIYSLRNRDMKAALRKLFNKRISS

OR2W1 = target: T2, OR2W1 (Homo sapiens, UniProt Q9Y3N9); settings: cited from earlier work
T2 sequence (Q9Y3N9 1-320): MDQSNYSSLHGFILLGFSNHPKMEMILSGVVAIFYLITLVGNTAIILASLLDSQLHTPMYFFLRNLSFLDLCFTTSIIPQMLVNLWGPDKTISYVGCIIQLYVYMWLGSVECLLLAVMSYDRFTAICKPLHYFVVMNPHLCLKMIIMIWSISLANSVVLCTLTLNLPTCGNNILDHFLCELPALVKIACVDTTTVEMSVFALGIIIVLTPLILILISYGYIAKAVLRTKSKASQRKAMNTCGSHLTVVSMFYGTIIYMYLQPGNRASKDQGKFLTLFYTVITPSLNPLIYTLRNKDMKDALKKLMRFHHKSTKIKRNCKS

[1] = Table S1, ref Supplement references [1]-[9] as printed after each odorant name
[2] = Table S2, ref Supplement references [2]-[12] as printed after each odorant name

| Compound | Class (agonist / non-agonist / conflicting info.) for OR1A1 (OR1A1; [1]) | Class (agonist / non-agonist / antagonist / conflicting info.) for OR2W1 (OR2W1; [2]) | Class (agonist / non-agonist / conflicting info.) for OR1A1 (OR1A1) | Class (agonist / non-agonist / antagonist / conflicting info.) for OR2W1 (OR2W1) | Class (agonist / non-agonist / conflicting info.) for OR1A1 (OR1A1; Table S1, ref Supplement references [1]-[9] as printed after each odorant name, listed as (R)-limonene) |
| --- | --- | --- | --- | --- | --- |
| CCCCCCCCC1CCC(=O)O1 (stereo not drawn) [5-Octyloxolan-2-one] | Non-agonist | Non-agonist |  |  |  |
| c1ccc2ncccc2c1 [Quinoline] | Agonist | Non-agonist |  |  |  |
| CCCCCC1CCCC(=O)O1 (stereo not drawn) [Delta-decalactone] | Non-agonist | Non-agonist |  |  |  |
| CCCCCOC(=O)CCC [Amyl butyrate] | Conflicting info. | Non-agonist |  |  |  |
| CCCCCC(=O)O [Hexanoic acid] |  |  | Non-agonist | Non-agonist |  |
| C=C(C)[C@H]1CC=C(C)CC1 [R-limonene] | Agonist | Agonist |  |  | agonists |
| CC(C)(S)CCOC=O [3-Mercapto-3-methylbutyl formate] | Non-agonist | Non-agonist |  |  |  |
| CC(C)CCO [3-Methyl-1-butanol] | Non-agonist | Non-agonist |  |  |  |
| CCOC(C)OCC [Acetal] | Non-agonist | Non-agonist |  |  |  |
| CCOC(C)=O [Ethyl acetate] | Non-agonist | Non-agonist |  |  |  |
| CCCCCC1CCC(=O)O1 (stereo not drawn) [5-Pentyloxolan-2-one] | Agonist | Non-agonist |  |  |  |
| Caramel furanone | Non-agonist | Non-agonist |  |  |  |
| CCC(C)=O [2-butanone] |  |  | Non-agonist | Non-agonist |  |
| CCCCCCCC(=O)O [Octanoic acid] |  |  | Non-agonist | Conflicting info. |  |
| CCC(S)C(C)CO (stereo not drawn) [2-Methyl-3-sulfanylpentan-1-ol] | Non-agonist | Non-agonist |  |  |  |
| CCC(=O)O [Propionic acid] |  |  | Conflicting info. | Non-agonist |  |
| CC(=O)OC/C=C/c1ccccc1 [Cinnamyl acetate] | Non-agonist | Agonist |  |  |  |
| C=C(C)C1CC=C(C)C(=O)C1 (single isomer, unassigned; (-)) [(-)-Carvone] | Agonist | Agonist |  |  |  |
| COc1nccnc1C(C)C [2-isopropyl-3-methoxypyrazine] | Non-agonist | Non-agonist |  |  |  |

| Compound | Class (agonist / non-agonist / conflicting info.) for OR1A1 (OR1A1; [1]) | Class (agonist / non-agonist / antagonist / conflicting info.) for OR2W1 (OR2W1; [2]) | Class (agonist / non-agonist / conflicting info.) for OR1A1 (OR1A1) | Class (agonist / non-agonist / antagonist / conflicting info.) for OR2W1 (OR2W1) | Class (agonist / non-agonist / conflicting info.) for OR1A1 (OR1A1; Table S1, ref Supplement references [1]-[9] as printed after each odorant name, listed as (R)-limonene) |
| --- | --- | --- | --- | --- | --- |
| CCCC/C=C/C=C/C=O [E,E-2,4-nonadienal] | Non-agonist | Non-agonist |  |  |  |
| CC/C=C\CCOC(C)=O [3-Hexenyl acetate, (3Z)-] | Non-agonist | Non-agonist |  |  |  |
| CCCC(S)CCO (stereo not drawn) [3-Sulfanylhexan-1-ol] | Non-agonist | Non-agonist |  |  |  |
| CCC1CCC(=O)O1 (stereo not drawn) [Γ-caprolactone] |  |  | Non-agonist | Non-agonist |  |
| O=C1CCCCC1 [Cyclohexanone] | Non-agonist | Non-agonist |  |  |  |
| CCCCCC(=O)C(C)C(C)=O (stereo not drawn) [3-Methyl-2,4-nonanedione] | Agonist | Non-agonist |  |  |  |
| CCCCOC(=O)C(C)OC(=O)CCC (stereo not drawn) [Butyl butyryl lactate] | Non-agonist | Non-agonist |  |  |  |
| C=CCOC(=O)CCCCCC [Allyl heptanoate] |  |  | Agonist | Non-agonist |  |
| CCCCCCCC(C)=O [2-nonanone] | Conflicting info. | Agonist |  |  |  |
| CC/C=C\CC=O [3-hexenal, (3z)-] | Non-agonist | Non-agonist |  |  |  |
| C=CCSSCC=C [Allyl disulfide] |  |  | Non-agonist | Non-agonist |  |
| O=C(O)CCc1ccccc1 [3-Phenyl propionic acid] |  |  | Non-agonist | Non-agonist |  |
| Cc1occc(=O)c1O [Maltol] | Non-agonist | Non-agonist |  |  |  |
| C=CC(=O)CCCCC [1-octen-3-one] | Conflicting info. | Non-agonist |  |  |  |
| C=CCSC [Allyl methyl sulfide] | Non-agonist | Non-agonist |  |  |  |
| CC(=O)OCc1ccccc1 [Benzyl acetate] | Agonist | Agonist |  |  |  |
| CC/C=C\CCO [Cis-3-hexen-1-ol] | Conflicting info. | Conflicting info. |  |  |  |
| CCCCCCCCO [Octanol] | Conflicting info. | Agonist |  |  |  |
